One assay has as its system TGM1 transcripts. As to the kind of experiment: Expression of TGM1 transcripts in keratinocytes (RT-qPCR). It counts as cell-based. As to conditions: human epidermal keratinocytes. On the procedure: (§1) The influence of compound 5, in particular obtained according to the preparation process described in example 1 above, on the epidermal renewal and the barrier effect of the skin was evaluated in vitro by measuring the expression of the TGM1 and TGM3 transcripts in keratinocytes.
(§2) Human epidermal keratinocytes were incubated for 24 hours in the presence or absence (control) of the compound to be tested. At the end of the incubation, the total RNAs were extracted and then quantified. The expression of the TGM1 and TGM3 transcripts was then measured by means of a 2-step RT-qPCR method by means of a LightCycler® 480 system and according to the SYBR® Green (Qiagen) incorporation technique. The expression of these transcripts was standardized relative to the expression of 2 housekeeping genes, RPL13A and GAPDH. The experiment was reproduced 3 times (N=3).
(§3) The results are expressed as fold change (fc) relative to the control.
(In general: Real-time PCR tracks product formation cycle by cycle.)

A further assay deals with TGM3 transcripts. Nature of the assay: Expression of TGM3 transcripts in keratinocytes (RT-qPCR). Format: cell-based. As to conditions: human epidermal keratinocytes. On the procedure: as §1, §2, §3
Setting [1] is: 24 hours incubation, 100 μm, standardized to RPL13A and GAPDH, N=3.

As for `CCCCCCCCC1C(O)CCC1CC(=O)O` (stereo not shown) [Compound 5], the “expression of the TGM1 transcripts (class in words)” value with TGM1 transcripts (24 hours) was “moderately stimulated”. The “TGM1 transcript expression, fold change (fc) relative to the control” value with TGM1 transcripts (setting [1]) worked out at 1.9 fc. Besides, in the assay on TGM3 transcripts (24 hours), the “expression of the TGM3 transcripts (class in words)” value was “moderately stimulated”. In addition, the “TGM3 transcript expression, fold change (fc) relative to the control” value with TGM3 transcripts (setting [1]) is 1.8 fc.

For the origin of these results see patent US10654788B2, “Method for synthesizing novel compounds derived from 3-hydroxy-cyclopentyl acetic acid” (L'OREAL, priority 2015, dated 2020).
